Test results: patent US20230104823A1, “PROCESS FOR THE PREPARATION OF PURINE DERIVATIVES EXHIBITING CDK INHIBITORY ACTIVITY” (CYCLACEL LIMITED, priority 2020, published 2023)
In brackets after ≈: the same amount, converted by molar mass.

Columns and labels:
CDK = settings: statement in background section; cited from earlier work
[1] = solubility measurement during crystallisation of crude compound [1]; type: physicochemical; settings: for T=0 solubility measurement: 5 volumes
Description: The hot mixture was clarified through a heated large nylon syringe filter (0.44 μm) into a Mya4 100 ml process vessel with overhead U-shape agitation at 200 RPM pre-heated to 95° C. (target internal temperature=80-85° C.). The dark brown solution was cooled to 74.5° C. over 15 minutes and seeded with crystals of compound [1] (Form A) (ca. 6 mg 0.1% wt). […] Noticeable amounts of off-white precipitate were observed ca. 61-62° C. Following cooling, the mixture was held at 0° C. for ca. 3 hours. The solids were isolated via filtration, with no evidence of fouling of the vessel or agitator. The vessel and filter cake were washed with the isolated filtrates and air dried for 15 minutes before collection of the off-white solids and dark brown liquors. The solids were collected and dried in vacuo at 45° C. for ca. 4 hours to yield the title compound. 4.88 g of crystalline Compound [1] was successfully isolated in 80.1% yield. The maximum theoretical recovery based upon measured solubility pre-isolation at 0° C. was 94.2%.
Crude Compound [1] (6.00 g) was suspended ethyl acetate (30 ml, 5 volumes) in a suitable glass vessel under N2 fitted with reflux condenser and stirrer bead agitation at 420 RPM. The beige suspension was heated to 75° C. (target 70-75° C.) upon which full dissolution to a dark brown solution was achieved during heating at ca. 68° C. The hot mixture was clarified through a heated large nylon syringe filter (0.44 μm) into a Mya4 100 ml process vessel with overhead U-shape agitation at 200 RPM pre-heated to 85° C. (target internal temperature=70-75° C.). The dark brown solution was cooled to 65.2° C. over 15 minutes (target 62.5-67.5° C.) and seeded with crystals of compound [1] (Form A) (ca. 6 mg 0.1% wt). Cooling was continued to 59.8° C. […] The solids were isolated via filtration. The vessel and filter cake were washed with the isolated filtrates and air dried for 12 minutes before collection of the off-white solids and dark brown liquors. The solids were collected and dried in vacuo at 45° C. for ca. 4 hours to yield the title compound. 4.59 g of crystalline Compound [1] was successfully isolated in 76.4% yield. The maximum theoretical recovery based upon measured solubility pre-isolation at 0° C. was 90.6%.
Crude Compound [1] (5.96 g) was suspended n-Butyl acetate (30 ml, 5 volumes) in a suitable glass vessel under N2 fitted with reflux condenser and stirrer bead agitation at 420 RPM. The beige suspension was heated to 85° C. (target 80-85° C.) upon which full dissolution to a dark brown solution was achieved during heating at ca. 82° C. The hot mixture was clarified through a heated large nylon syringe filter (0.44 μm) into a Mya4 100 ml process vessel with overhead U-shape agitation at 200 RPM pre-heated to 95° C. (target internal temperature=80-85° C.). The dark brown solution was cooled to 74.6° C. over 15 minutes (target 72.5-77.5° C.) and seeded with crystals of compound [1] (Form A) (ca. 6 mg 0.1% wt). Cooling was continued to 69.5° C. […] The solids were isolated via filtration. The vessel and filter cake were washed with the isolated filtrates and air dried for 10 minutes before collection of the grey solids and dark brown liquors. The solids were collected and dried in vacuo at 45° C. for ca. 4 hours to yield the title compound. 4.64 g of crystalline Compound [1] was successfully isolated in 77.9% yield. The maximum theoretical recovery based upon measured solubility pre-isolation at 0° C. was 91.7%.

[2] = system: range of different cell lines; settings: statement in background section; cited from earlier work

In the case of `CC[C@H](Nc1nc(NCc2cnc(C)cc2C)c2ncn(C(C)C)c2n1)[C@@H](C)O` [Compound [1]], the CDK inhibitory activity (CDK) is listed as “potent CDK inhibitory activity”, the “T=0 solubility measurement” value ([1]; ethyl acetate, after seeding at 59.8° C.) is listed as 184.35 mg/mL and the solubility ([1]; ethyl acetate, held at 0° C. for ca. 5 hours (90.06% development)) is listed as 18.84 mg/mL (≈ 47.4 mM). For the same molecule, the “T=0 solubility measurement” value ([1]; isopropyl acetate, after seeding at 70.1° C.) was 189.83 mg/mL, the “T=0 solubility measurement” value ([1]; n-butyl acetate, after seeding at 69.5° C.) was 175.84 mg/mL and the solubility ([1]; n-butyl acetate, held at 0° C. for ca. 3 hours (91.7% development)) was 16.61 mg/mL (≈ 41.8 mM). The “potency in cellular toxicity studies” value [2] was “surprisingly high potency”.
